{
  "source": "paper PMC9024597",
  "about": "“The Biological Fate of a Novel Anticancer Drug Candidate TNBG-5602: Metabolic Profile, Interaction with CYP450, and Pharmacokinetics in Rats” (Molecules, 2022)",
  "assay_type_in_all_cases": "in vitro ADME",
  "key": {"CYP2D6": {"target": "T1, CYP2D6 (Homo sapiens, UniProt P10635)", "T1 construct": "purchased IPHASE", "T1 sequence (P10635 whole entry)": "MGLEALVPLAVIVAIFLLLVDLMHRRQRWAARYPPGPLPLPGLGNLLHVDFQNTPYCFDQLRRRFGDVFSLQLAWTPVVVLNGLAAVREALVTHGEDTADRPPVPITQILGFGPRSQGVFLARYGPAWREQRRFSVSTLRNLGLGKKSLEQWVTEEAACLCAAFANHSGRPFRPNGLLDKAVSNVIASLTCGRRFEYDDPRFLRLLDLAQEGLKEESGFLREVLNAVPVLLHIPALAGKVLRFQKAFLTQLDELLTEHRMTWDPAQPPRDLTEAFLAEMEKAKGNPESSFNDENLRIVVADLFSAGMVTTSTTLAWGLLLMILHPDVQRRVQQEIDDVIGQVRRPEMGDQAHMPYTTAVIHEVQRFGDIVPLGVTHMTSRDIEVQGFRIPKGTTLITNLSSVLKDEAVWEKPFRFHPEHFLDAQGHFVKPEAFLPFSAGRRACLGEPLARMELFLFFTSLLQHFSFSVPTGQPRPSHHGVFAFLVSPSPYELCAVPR", "assay": "IC50 assessment using recombinant human CYPs (probe dextromethorphan)", "conditions": "recombinant CYP 0.025 μM, dextromethorphan 0.05 mg mL^−1, 37 °C, 30 min, n = 3; read-out: IC50 against CYP2D6", "experimental": "(§1) Figure 12 The inhibition curves for TNBG-5602 against cytochrome enzymes (mean ± SD, n = 3). TNBG-5602 (final concentrations of 0, 0.01, 0.1, 1.0, 10.0, and 100 μM) was incubated with recombinant cytochrome P450s (final concentration 0.025 μM) and the specific probe substates (final concentration 0.05 mg mL^−1) with NADPH to initiate the metabolic reaction. The incubations were carried out at 37 °C for 30 min with a total volume of 200 μL. The CYP isoforms tested were 2D6 (dextromethorphan), 2C9 (tolbutamide), and 3A4 (testosterone). […] The IC50 values were calculated using the GraphPad Prism statistical software (Version 8) by nonlinear regression analysis.\n(§2) The LC-MS/MS instrument was the same as the system used to determine TNBG-5602. The mobile phase consisted of 0.1% formic acid, aqueous solution (Solvent A), and acetonitrile (Solvent B) at a flow rate of 0.3 mL min^−1. […]\n(§3) For IC50 assessment, the inhibition curves were established by nonlinear regression analysis plotting the relative activity (y) versus the logarithm of the TNBG-5602 concentration (x). The inhibition curve and the half-maximal inhibitory concentration of TNBG-5602 against each CYP isoform were analyzed using the GraphPad Prism statistical software (version 8). […]"}, "CYP2C9": {"target": "T2, CYP2C9 (Homo sapiens, UniProt P11712)", "T2 construct": "purchased IPHASE", "T2 sequence (P11712 whole entry)": "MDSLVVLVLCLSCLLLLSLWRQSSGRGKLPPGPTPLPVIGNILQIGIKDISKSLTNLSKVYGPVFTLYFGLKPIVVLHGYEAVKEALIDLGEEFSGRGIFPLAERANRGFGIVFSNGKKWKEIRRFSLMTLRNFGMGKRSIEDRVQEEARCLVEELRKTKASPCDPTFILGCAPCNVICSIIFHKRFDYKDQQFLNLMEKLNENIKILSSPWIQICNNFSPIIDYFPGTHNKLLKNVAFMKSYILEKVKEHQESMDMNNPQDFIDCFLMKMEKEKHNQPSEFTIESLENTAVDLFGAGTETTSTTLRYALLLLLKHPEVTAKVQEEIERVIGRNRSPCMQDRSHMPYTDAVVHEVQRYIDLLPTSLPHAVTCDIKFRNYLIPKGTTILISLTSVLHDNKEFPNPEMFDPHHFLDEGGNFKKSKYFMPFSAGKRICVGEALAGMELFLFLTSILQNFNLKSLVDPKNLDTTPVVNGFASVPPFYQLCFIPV", "assay": "IC50 assessment using recombinant human CYPs (probe tolbutamide)", "conditions": "recombinant CYP 0.025 μM, tolbutamide 0.05 mg mL^−1, 37 °C, 30 min, n = 3; read-out: IC50 against CYP2C9", "experimental": "as §1, §2, §3"}, "[1]": {"assay": "Stability of TNBG-5602 rat plasma samples on storage and freeze-thaw", "conditions": "stored at −20 and −80 °C"}},
  "note": "pIC50: −log10 of the molar value.",
  "data": [
    {"smiles": "CN(C)CCN1CC2c3ccccc3CCN2c2nc3ccccc3nc21", "note": "(stereo not drawn) [TNBG-5602]", "values": [
      {"measurement": "pIC50", "setting": "CYP2D6", "value": 5.60},
      {"measurement": "pIC50", "setting": "CYP2C9", "value": 5.02},
      {"measurement": "time plasma samples were stable on storage", "setting": "[1]", "value": "at least 90 days"}
    ]}
  ]
}
